Test results: US10016396B2, “Dexmedetomidine premix formulation” (Hospira, Inc., priority 2012, dated 2018)
Counter-ions that a name gives are not always drawn. Like-named read-outs stand apart in the source and are kept apart here.

Protocol: The stability of dexmedetomidine hydrochloride to acidic, basic, oxidative and photolytic stress was examined. […] Each sample was injected in duplicate.

degradation compared to the control sample (8 h, 13.3 μg/mL): 12.7%
Assay (Acid Sample: 5N Hydrochloric Acid, 60° C., 8 hours): 95.2%
Assay (Base Sample: 2N Sodium Hydroxide, 60° C., 4 hours): 93.8%
Assay (Control Sample, not subjected to any stress): 98.4%
Assay (Heat Sample: 60° C., 8 hours): 98.4%
Assay (Light Sample: photochemical reaction unit, 24 hours): 92.0%
Assay (Oxidation Sample: 0.3% Hydrogen Peroxide, 60° C., 8 hours): 85.7%
Structure (SMILES): Cc1cccc([C@H](C)c2cnc[nH]2)c1C [dexmedetomidine hydrochloride]
